Source: patent US11021481B2, “Substituted isoindolin-1-ones and 2,3-dihydro-1h-pyrrolo[3,4-c]pyridin-1-ones as HPK1 antagonists” (Nimbus Saturn, Inc., priority 2019, dated 2021)

The compounds below were run against HPK1 (Homo sapiens (Human), UniProt Q92918) (assay: HPK1 biochemical enzyme assay (microfluidic mobility shift assay)). Details: 1.5 nM HPK1, ATP 1 mM final, 30 min preincubation, 60 min at RT, Caliper EZ Reader; read-out: HPK1 1000UMATP caliper IC50.
Procedure, shortened: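 Mobility shift readout of HPK1 activity after a 60 min RT reaction with 1 mM ATP, 1 μM substrate and 5 mM MgCl2. Enzyme/substrate mix was first exposed to compounds for 30 min, using ten-point curves topping at 3 μM final.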

Chain of HPK1 (Q92918 whole entry): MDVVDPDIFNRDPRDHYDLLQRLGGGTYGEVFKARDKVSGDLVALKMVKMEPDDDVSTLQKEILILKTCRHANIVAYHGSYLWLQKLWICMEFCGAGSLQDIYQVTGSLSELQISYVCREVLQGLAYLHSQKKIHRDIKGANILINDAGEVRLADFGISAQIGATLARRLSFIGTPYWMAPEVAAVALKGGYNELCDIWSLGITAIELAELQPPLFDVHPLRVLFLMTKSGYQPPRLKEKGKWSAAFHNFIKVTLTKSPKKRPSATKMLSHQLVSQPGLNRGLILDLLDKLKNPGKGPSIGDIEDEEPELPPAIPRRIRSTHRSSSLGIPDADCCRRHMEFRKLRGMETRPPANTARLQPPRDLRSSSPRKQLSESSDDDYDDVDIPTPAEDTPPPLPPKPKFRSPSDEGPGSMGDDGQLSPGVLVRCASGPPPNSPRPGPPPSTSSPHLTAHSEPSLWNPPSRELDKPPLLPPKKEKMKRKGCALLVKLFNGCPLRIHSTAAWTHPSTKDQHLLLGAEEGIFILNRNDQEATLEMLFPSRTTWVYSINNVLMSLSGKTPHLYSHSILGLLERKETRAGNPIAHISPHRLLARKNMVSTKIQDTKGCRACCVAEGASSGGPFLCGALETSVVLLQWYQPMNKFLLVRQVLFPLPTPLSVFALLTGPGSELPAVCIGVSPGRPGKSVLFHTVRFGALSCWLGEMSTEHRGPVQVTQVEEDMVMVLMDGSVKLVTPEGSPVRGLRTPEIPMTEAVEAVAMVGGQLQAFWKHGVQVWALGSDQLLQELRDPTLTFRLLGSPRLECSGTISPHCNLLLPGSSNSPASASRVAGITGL

SMILES	IC50 [nM]
CN1C[C@H]2CCN(c3cccc(Nc4cnc(-c5ccnc6c5ccn6C)c5c4C(=O)NC5)n3)[C@H]2C1 [I-631, 4-(1-methyl-1H-pyrrolo[2,3-b]pyridin-4-yl)-7-((6-((3aR,6aR)-5-methylhexahy-dropyrrolo[3,4-b]pyrrol-1(2H)-yl)pyridin-2-yl)amino)-2,3-dihydro-1H-pyrrolo[3,4-c]pyridin-1-one]	> 1000
O=C1NCc2c(-c3cncn4ccnc34)ncc(Nc3ccc(N4CCC(O)CC4)cn3)c21 [I-632, 7-((5-(4-hydroxy-piperidin-1-yl)pyridin-2-yl)amino)-4-(imidazo[1,2-c]pyrimidin-8-yl)-2,3-dihydro-1H-pyrrolo[3,4-c]pyridin-1-one]	> 1000
CN(C)Cc1cc(Nc2ccc(-c3cnc4cc(Cl)ccn34)c3c2C(=O)NC3)ncc1C1(O)CCOCC1 [I-633, 4-(7-chloroimidazo [1,2-a]pyridin-3-yl)-7-((4-((dimethylamino)-methyl)-5-(4-hydroxytetra-hydro-2H-pyran-4-yl)pyridin-2-yl)amino)isoin-dolin-1-one]	< 100
C[C@H](O)[C@H]1CN(c2ccc(Nc3ccc(-c4cnc5cc(F)ccn45)c4c3C(=O)NC4)nc2)CCO1 [I-634, 4-(7-fluoroimidazo[1,2-a]pyridin-3-yl)-7-((5-((R)-2-((S)-1-hydroxyethyl)morpholino)pyridin-2-yl)amino)isoindolin-1-one]	< 100
C[C@@H](O)[C@@H]1CN(c2ccc(Nc3ccc(-c4cnc5cc(F)ccn45)c4c3C(=O)NC4)nc2)CCO1 [I-635, 4-(7-fluoroimidazo[1,2-a]pyridin-3-yl)-7-((5-((S)-2-((R)-1-hydroxyethyl)morpholino)pyridin-2-yl)amino)isoindolin-1-one]	< 100
Cc1cc(Nc2cnc(-c3ccnc4c3ccn4C)c3c2C(=O)NC3)nc(N2CC[C@H]3CNC[C@H]32)c1 [I-641, 7-((6-((3aS.6aS)-hcxahydropyrr-olo[3,4-b]pyrrol-1(2H)-yl)-4-methylpyridin-2-yl)amino)-4-(1-methyl-1H-pyrrolo[2,3-b]pyridin-4-yl)-2,3-dihydro-1H-pyrrolo[3,4-c]pyridin-1-one]	< 100
Cc1cc(Nc2cnc(-c3ccnc4c3ccn4C)c3c2C(=O)NC3)nc(N2CC[C@@H]3CNC[C@@H]32)c1 [I-642, 7-((6-((3aR,6aR)-hcxahydropyrr-olo[3,4-b]pyrrol-1(2H)-yl)-4-methylpyridin-2-yl)amino)-4-(1-methyl-1H-pyrrolo[2,3-b]pyridin-4-yl)-2,3-dihydro-1H-pyrrolo[3,4-c]pyridin-1-one]	100 to 1000
Cc1cc(Nc2cnc(-c3ccnc4c3ccn4C)c3c2C(=O)NC3)nc(N2CC[C@H]3CN(C)C[C@H]32)c1 [I-643, 4-(1-methyl-1H-pyrrolo[2,3-b]pyridin-4-yl)-7-((4-methyl-6-((3aS,6aS)-5-methylhcxahydropyrrolo[3,4-b]pyrrol-1(2H)-yl)pyridin-2-yl)amino)-2,3-dihydro-1H-pyrrolo[3,4-c]pyridin-1-one]	< 100
Cc1cc(Nc2cnc(-c3ccnc4c3ccn4C)c3c2C(=O)NC3)nc(N2CC[C@@H]3CN(C)C[C@@H]32)c1 [I-644, 4-(1-methyl-1H-pyrrolo[2,3-b]pyridin-4-yl)-7-((4-methyl-6-((3aR,6aR)-5-methylhexahydropyrrolo[3,4-b]pyrrol-1(2H)-yl)pyridin-2-yl)amino)-2,3-dihydro-1H-pyrrolo[3,4-c]pyridin-1-one]	100 to 1000
Cc1ccn2c(-c3ccc(Nc4ccc(N5CCO[C@H](C(C)(C)O)C5)cn4)c4c3CNC4=O)cnc2n1 [I-645, (S)-7-((5-(2-(2-hydroxypropan-2-yl)morpliolino)pyridin-2-yl)amino)-4-(7-methylimidazo [1,2-a]pyrimidin-3-yl) isoindolin-1-one]	< 100
Cc1ccn2c(-c3ccc(Nc4ccc(N5CCO[C@@H](C(C)(C)O)C5)cn4)c4c3CNC4=O)cnc2n1 [I-646, (R)-7-((5-(2-(2-hydroxypropan-2-yl)morpholino)pyridin-2-yl)amino)-4-(7-methylimidazo [1,2-a]pyrimidin-3-yl) isoindolin-1-one]	< 100
CN1CCN(CC2(O)CCN(c3ccc(Nc4cnc(-c5cnc6ccccn56)c5c4C(=O)NC5)nc3)CC2)CC1 [I-648, 7-((5-(4-hydroxy-4-((4-methylpiperazin-1-yl)methyl)pip-eridin-1-yl)pyridin-2-yl)amino)-4-(imidazo[1,2-a]pyridin-3-yl)-2,3-dihydro-1H-pyrrolo[3,4-c]pyridin-1-one]	< 100
O=C1NCc2c(-c3cnc4c(F)cccn34)ncc(Nc3ccc(N4CC[C@@H](F)[C@H](O)C4)cn3)c21 [I-652, 7-((5-((3R,4R)-4-fluoro-3-hydroxypiperidin-1-yl)pyridin-2-yl)amino)-4-(8-fluoroimidazo [1,2-a]pyridin-3-yl)-2,3-dihydro-1H-pyrrolo[3,4-c]pyridin-1-one]	< 100
O=C1NCc2c(-c3cnc4c(F)cccn34)ncc(Nc3ccc(N4CC[C@H](F)[C@@H](O)C4)cn3)c21 [I-653, 7-((5-((3S.4S)-4-fluoro-3-liydroxy-piperidin-1-yl)pyridin-2-yl)amino)-4-(8-fluoroimidazo [1,2-a]pyridin-3-yl)-2,3-dihydro-1H-pyrrolo[3,4-c]pyridin-1-one]	< 100
O=C1NCc2c(-c3cnc4cc(F)ccn34)ncc(Nc3ccc(N4CCCC(O)(CN5CCOCC5)C4)cn3)c21 (stereo not shown) [I-654, 4-(7-fluoroimidazo [1,2-a]pyridin-3-yl)-7-((5-(3-hydroxy-3-(morpholinomethyl)piperidin-1-yl)pyridin-2-yl)amino)-2.3-dihydro-1H-pyrrolo[3,4-c]pyridin-1-one]	< 100
CC1(C)CNCCN1Cc1ccc(Nc2ccc(-c3cnc4c(F)c(C(F)F)ccn34)c3c2C(=O)NC3)nc1 [I-655, 4-(7-(difluoromethvl)-8-fluoroimidazo [1,2-a]pyridin-3-yl)-7-((5-((2,2-dimethylpiperazin-1-yl)methyl)pyridin-2-yl)amino)isoin-dolin-1-one]	< 100
O=C1NCc2c(-c3cnc4cc(F)ccn34)ccc(Nc3ccc(N4CCC[C@@](O)(CN5CCOCC5)C4)cn3)c21 [I-656, (R)-4-(7-fluoroimidazo [1,2-a]pyridin-3-yl)-7-((5-(3-hydroxy-3-(morpholinomethyl)piperidin-1-yl)pyridin-2-yl)amino)isoin-dolin-1-one]	< 100
O=C1NCc2c(-c3cnc4cc(F)ccn34)ccc(Nc3ccc(N4CCC[C@](O)(CN5CCOCC5)C4)cn3)c21 [I-657, (S)-4-(7-fluoroimidazo [1,2-a]pyridin-3-yl)-7-((5-(3-hydroxy-3-(morpholinomethyl)piperidin-1-yl)pyridin-2-yl)amino)isoin-dolin-1-one]	< 100
O=C1NCc2c(-c3cnc4c(F)cccn34)ncc(Nc3ccc(N4CC[C@H](F)[C@H](O)C4)cn3)c21 [I-658, 7-((5-((3R,4S]-4-fluoro-3-hydroxy-piperidin-1-yl)pyridin-2-yl)amino)-4-(8-fluoroimidazo [1,2-a]pyridin-3-yl)-2,3-dihydro-1H-pyrrolo[3,4-c]pyridin-1-one]	< 100
O=C1NCc2c(-c3cnc4c(F)cccn34)ncc(Nc3ccc(N4CC[C@@H](F)[C@@H](O)C4)cn3)c21 [I-659]	< 100
Cc1ccc(Nc2cnc(-c3ccnc4c3ccn4C)c3c2C(=O)NC3)nc1N(C)C1CNC1 [I-667, 7-((6-(azetidin-3-yl-(methyl)amino)-5-methylpyridin-2-yl)amino)-4-(1-methyl-1H-pyrrolo[2.3-b]pyridin-4-yl)-2,3-dihydro-1H-pyrrolo[3,4-c]pyridin-1-one]	> 1000
CN(C)C(C)(C)C1CN(c2ccc(Nc3cnc(-c4ccnc5c4ccn5C)c4c3C(=O)NC4)nc2)CCO1 (stereo not shown) [I-668]	< 100
CN(C)CCOC1(c2ccc(Nc3ccc(-c4cnc5cc(F)ccn45)c4c3C(=O)NC4)nc2)CCOCC1 [I-669, 7-((5-(4-(2-(dimethylami-no)ethoxy)tetra-hydro-2H-pyran-4-yl)pyridin-2-yl)amino)-4-(7-fluoroimidazo [1,2-a]pyridin-3-yl)isoindolin-1-one]	< 100
CN1CCN(Cc2ccc(Nc3ccc(-c4cnc5c(F)c(C(F)F)ccn45)c4c3C(=O)NC4)nc2)C(C)(C)C1 [I-672, 4-(7-(difluorometh-yl)-8-fluoroimidazo [1,2-a]pyridin-3-yl)-7-((5-((2.2.4-trimethylpiper-azin-1-yl)methyl)pyri-din-2-yl)amino)isoin-dolin-1-one]	< 100
CN1CCCC1C1(O)CCN(c2ccc(Nc3ccc(-c4cnc5cc(F)ccn45)c4c3C(=O)NC4)nc2)CC1 (stereo not shown) [I-677, 4-(7-fluoroimidazo [1,2-a]pyridin-3-yl)-7-((5-(4-hydroxy-4-(1-methylpyrrol-idin-2-yl)piperidin-1-yl)pyridin-2-yl)amino)isoin-dolin-1-one]	< 100
Cn1ccc2c(-c3ncc(Nc4cccc(N5CC6(CCN6)C5)n4)c4c3CNC4=O)ccnc21 [I-680, 7-((6-(l,6-diazaspiro[3,3]heptan-6-yl)pyridin-2-yl)amino)-4-(1-methyl-1H-pyrrolo[2,3-b]pyridin-4-yl)-2,3-dihydro-1H-pyrrolo[3,4-c]pyridin-1-one]	100 to 1000
COc1cc(Nc2cnc(-c3ccnc4c3ccn4C)c3c2C(=O)NC3)nc(N2CC[C@H]3CNC[C@H]32)c1 [I-681, 7-((6-((3aS, 6aS)-hexahydropyrrolo[3,4-b]pyrrol-1(2H)-yl)-4-methoxypyridin-2-yl)amino)-4-(1-methyl-1H-pyrrolo[2,3-b]pyridin-4-yl)-2,3-dihydro-1H-pyrrolo[3,4-c]pyridin-1-one]	< 100
COc1cc(Nc2cnc(-c3ccnc4c3ccn4C)c3c2C(=O)NC3)nc(N2CC[C@@H]3CNC[C@@H]32)c1 [I-682, 7-((6-((3aR,6aR)-hexahydro-pyrrolo[3,4-b]pyrrol-l(2H)-yl)-4-methoxypyridin-2-yl)amino)-4-(1-methyl-1H-pyrrolo[2,3-b]pyridin-4-yl)-2,3-dihydro-1H-pyrrolo[3,4-c]pyridin-1-one]	100 to 1000
